# From patent US9113629B2, “4-amino-6-(4-substituted-phenyl)-picolinates and 6-amino-2-(4-substituted-phenyl)-pyrimidine-4-carboxylates and their use as herbicides” (DOW AGROSCIENCES LLC, priority 2013, dated 2015)
# Tested on: Key Grass and Sedge Weeds as well as Grass Crops
# Assay: Post-emergent Test II herbicidal activity (Table 6)
# Assay type: in vivo
# Settings: Triticum aestivum, post-emergence, 336 h, TRZSS (wheat), application rate 70 g ai/ha, read-out: Visual Growth Reduction (%) 14 Days After Application, TRZSS
# In short: (§1)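 Foliar application at 187 L/ha to greenhouse-grown seedlings (first or second true leaf); subirrigation thereafter. Visual 0–100% injury at 14 d relative to untreated plants.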
row,SMILES,pest or weed control at 70 g/ha [%]
1,COC(=O)c1nc(-c2cc(F)c(I)cc2F)c(Br)c(N)c1Cl [Compound 100],30 to 44

# Same assay, conditions: Triticum aestivum, post-emergence, 336 h, TRZSS (wheat), application rate 140 g ai/ha, read-out: Visual Growth Reduction (%) 14 Days After Application, TRZSS
row,SMILES,pest or weed control at 140 g/ha [%]
1,COC(=O)c1nc(-c2cc(F)c(I)cc2F)c(Br)c(N)c1Cl [Compound 100],60 to 74

# Same assay, conditions: post-emergence, 336 h, CYPES: yellow nutsedge (Cyperus esculentus), application rate 70 g ai/ha, read-out: Visual Growth Reduction (%) 14 Days After Application, CYPES
row,SMILES,pest or weed control at 70 g/ha [%]
1,COC(=O)c1nc(-c2cc(F)c(I)cc2F)c(Br)c(N)c1Cl [Compound 100],0 to 29

# Same assay, conditions: post-emergence, 336 h, CYPES: yellow nutsedge (Cyperus esculentus), application rate 140 g ai/ha, read-out: Visual Growth Reduction (%) 14 Days After Application, CYPES
row,SMILES,pest or weed control at 140 g/ha [%]
1,COC(=O)c1nc(-c2cc(F)c(I)cc2F)c(Br)c(N)c1Cl [Compound 100],0 to 29

# Same assay, conditions: post-emergence, 336 h, DIGSA: crabgrass (Digitaria sanguinalis), application rate 70 g ai/ha, read-out: Visual Growth Reduction (%) 14 Days After Application, DIGSA
row,SMILES,pest or weed control at 70 g/ha [%]
1,COC(=O)c1nc(-c2cc(F)c(I)cc2F)c(Br)c(N)c1Cl [Compound 100],45 to 59

# Same assay, conditions: post-emergence, 336 h, DIGSA: crabgrass (Digitaria sanguinalis), application rate 140 g ai/ha, read-out: Visual Growth Reduction (%) 14 Days After Application, DIGSA
row,SMILES,pest or weed control at 140 g/ha [%]
1,COC(=O)c1nc(-c2cc(F)c(I)cc2F)c(Br)c(N)c1Cl [Compound 100],60 to 74

# Same assay, conditions: post-emergence, 336 h, ECHCG: barnyardgrass (Echinochloa crus-galli), application rate 70 g ai/ha, read-out: Visual Growth Reduction (%) 14 Days After Application, ECHCG
row,SMILES,pest or weed control at 70 g/ha [%]
1,COC(=O)c1nc(-c2cc(F)c(I)cc2F)c(Br)c(N)c1Cl [Compound 100],0 to 29

# Same assay, conditions: post-emergence, 336 h, ECHCG: barnyardgrass (Echinochloa crus-galli), application rate 140 g ai/ha, read-out: Visual Growth Reduction (%) 14 Days After Application, ECHCG
row,SMILES,pest or weed control at 140 g/ha [%]
1,COC(=O)c1nc(-c2cc(F)c(I)cc2F)c(Br)c(N)c1Cl [Compound 100],0 to 29

# Same assay, conditions: post-emergence, 336 h, ORYSA: rice (Oryza sativa), application rate 70 g ai/ha, read-out: Visual Growth Reduction (%) 14 Days After Application, ORYSA
row,SMILES,pest or weed control at 70 g/ha [%]
1,COC(=O)c1nc(-c2cc(F)c(I)cc2F)c(Br)c(N)c1Cl [Compound 100],0 to 29

# Same assay, conditions: post-emergence, 336 h, ORYSA: rice (Oryza sativa), application rate 140 g ai/ha, read-out: Visual Growth Reduction (%) 14 Days After Application, ORYSA
row,SMILES,pest or weed control at 140 g/ha [%]
1,COC(=O)c1nc(-c2cc(F)c(I)cc2F)c(Br)c(N)c1Cl [Compound 100],0 to 29

# Same assay, conditions: post-emergence, 336 h, SETFA: giant foxtail (Setaria faberi), application rate 70 g ai/ha, read-out: Visual Growth Reduction (%) 14 Days After Application, SETFA
row,SMILES,pest or weed control at 70 g/ha [%]
1,COC(=O)c1nc(-c2cc(F)c(I)cc2F)c(Br)c(N)c1Cl [Compound 100],0 to 29

# Same assay, conditions: post-emergence, 336 h, SETFA: giant foxtail (Setaria faberi), application rate 140 g ai/ha, read-out: Visual Growth Reduction (%) 14 Days After Application, SETFA
row,SMILES,pest or weed control at 140 g/ha [%]
1,COC(=O)c1nc(-c2cc(F)c(I)cc2F)c(Br)c(N)c1Cl [Compound 100],0 to 29

# Same assay, conditions: post-emergence, 336 h, SORVU: grain sorghum (Sorghum vulgare), application rate 70 g ai/ha, read-out: Visual Growth Reduction (%) 14 Days After Application, SORVU
row,SMILES,pest or weed control at 70 g/ha [%]
1,COC(=O)c1nc(-c2cc(F)c(I)cc2F)c(Br)c(N)c1Cl [Compound 100],0 to 29

# Same assay, conditions: post-emergence, 336 h, SORVU: grain sorghum (Sorghum vulgare), application rate 140 g ai/ha, read-out: Visual Growth Reduction (%) 14 Days After Application, SORVU
row,SMILES,pest or weed control at 140 g/ha [%]
1,COC(=O)c1nc(-c2cc(F)c(I)cc2F)c(Br)c(N)c1Cl [Compound 100],0 to 29

# Same assay, conditions: post-emergence, 336 h, ZEAMX: maize, corn (Zea mays), application rate 70 g ai/ha, read-out: Visual Growth Reduction (%) 14 Days After Application, ZEAMX
row,SMILES,pest or weed control at 70 g/ha [%]
1,COC(=O)c1nc(-c2cc(F)c(I)cc2F)c(Br)c(N)c1Cl [Compound 100],0 to 29

# Same assay, conditions: post-emergence, 336 h, ZEAMX: maize, corn (Zea mays), application rate 140 g ai/ha, read-out: Visual Growth Reduction (%) 14 Days After Application, ZEAMX
row,SMILES,pest or weed control at 140 g/ha [%]
1,COC(=O)c1nc(-c2cc(F)c(I)cc2F)c(Br)c(N)c1Cl [Compound 100],45 to 59

# Tested on: not given
# Assay: not given
# Settings: not given
row,melting point [°C],SMILES
1,145 to 147,COC(=O)c1nc(-c2cc(F)c(I)cc2F)c(Br)c(N)c1Cl [Compound 100]

# Tested on: Key Broadleaf Weed and Crop Species
# Assay: Post-emergent Test II herbicidal activity (Table 5)
# Assay type: in vivo
# Settings: post-emergence, 336 h; ABUTH: velvetleaf (Abutilon theophrasti); 70 g ai/ha; post-emergent; 14 days after application; read-out: Visual Growth Reduction (%) 14 Days After Application ABUTH
# In short: as §1
row,SMILES,pest or weed control at 70 g/ha [%]
1,COC(=O)c1nc(-c2cc(F)c(I)cc2F)c(Br)c(N)c1Cl [Compound 100],85 to 94

# Same assay, conditions: post-emergence, 336 h; ABUTH: velvetleaf (Abutilon theophrasti); 140 g ai/ha; post-emergent; 14 days after application; read-out: Visual Growth Reduction (%) 14 Days After Application ABUTH
row,SMILES,pest or weed control at 140 g/ha [%]
1,COC(=O)c1nc(-c2cc(F)c(I)cc2F)c(Br)c(N)c1Cl [Compound 100],85 to 94

# Same assay, conditions: post-emergence, 336 h; AMARE: redroot pigweed (Amaranthus retroflexus); 70 g ai/ha; post-emergent; 14 days after application; read-out: Visual Growth Reduction (%) 14 Days After Application AMARE
row,SMILES,pest or weed control at 70 g/ha [%]
1,COC(=O)c1nc(-c2cc(F)c(I)cc2F)c(Br)c(N)c1Cl [Compound 100],85 to 94

# Same assay, conditions: post-emergence, 336 h; AMARE: redroot pigweed (Amaranthus retroflexus); 140 g ai/ha; post-emergent; 14 days after application; read-out: Visual Growth Reduction (%) 14 Days After Application AMARE
row,SMILES,pest or weed control at 140 g/ha [%]
1,COC(=O)c1nc(-c2cc(F)c(I)cc2F)c(Br)c(N)c1Cl [Compound 100],95 to 100

# Same assay, conditions: post-emergence, 336 h; BRSNN: oilseed-rape, canola (Brassica napus); 70 g ai/ha; post-emergent; 14 days after application; read-out: Visual Growth Reduction (%) 14 Days After Application BRSNN
row,SMILES,pest or weed control at 70 g/ha [%]
1,COC(=O)c1nc(-c2cc(F)c(I)cc2F)c(Br)c(N)c1Cl [Compound 100],60 to 74

# Same assay, conditions: post-emergence, 336 h; BRSNN: oilseed-rape, canola (Brassica napus); 140 g ai/ha; post-emergent; 14 days after application; read-out: Visual Growth Reduction (%) 14 Days After Application BRSNN
row,SMILES,pest or weed control at 140 g/ha [%]
1,COC(=O)c1nc(-c2cc(F)c(I)cc2F)c(Br)c(N)c1Cl [Compound 100],60 to 74

# Same assay, conditions: post-emergence, 336 h; CHEAL: lambsquarters (Chenopodium album); 70 g ai/ha; post-emergent; 14 days after application; read-out: Visual Growth Reduction (%) 14 Days After Application CHEAL
row,SMILES,pest or weed control at 70 g/ha [%]
1,COC(=O)c1nc(-c2cc(F)c(I)cc2F)c(Br)c(N)c1Cl [Compound 100],95 to 100

# Same assay, conditions: post-emergence, 336 h; CHEAL: lambsquarters (Chenopodium album); 140 g ai/ha; post-emergent; 14 days after application; read-out: Visual Growth Reduction (%) 14 Days After Application CHEAL
row,SMILES,pest or weed control at 140 g/ha [%]
1,COC(=O)c1nc(-c2cc(F)c(I)cc2F)c(Br)c(N)c1Cl [Compound 100],95 to 100

# Same assay, conditions: post-emergence, 336 h; EPHHL: wild poinsettia (Euphorbia heterophylla); 70 g ai/ha; post-emergent; 14 days after application; read-out: Visual Growth Reduction (%) 14 Days After Application EPHHL
row,SMILES,pest or weed control at 70 g/ha [%]
1,COC(=O)c1nc(-c2cc(F)c(I)cc2F)c(Br)c(N)c1Cl [Compound 100],45 to 59

# Same assay, conditions: post-emergence, 336 h; EPHHL: wild poinsettia (Euphorbia heterophylla); 140 g ai/ha; post-emergent; 14 days after application; read-out: Visual Growth Reduction (%) 14 Days After Application EPHHL
row,SMILES,pest or weed control at 140 g/ha [%]
1,COC(=O)c1nc(-c2cc(F)c(I)cc2F)c(Br)c(N)c1Cl [Compound 100],45 to 59

# Same assay, conditions: post-emergence, 336 h; HELAN: sunflower (Helianthus annuus); 70 g ai/ha; post-emergent; 14 days after application; read-out: Visual Growth Reduction (%) 14 Days After Application HELAN
row,SMILES,pest or weed control at 70 g/ha [%]
1,COC(=O)c1nc(-c2cc(F)c(I)cc2F)c(Br)c(N)c1Cl [Compound 100],85 to 94

# Same assay, conditions: post-emergence, 336 h; HELAN: sunflower (Helianthus annuus); 140 g ai/ha; post-emergent; 14 days after application; read-out: Visual Growth Reduction (%) 14 Days After Application HELAN
row,SMILES,pest or weed control at 140 g/ha [%]
1,COC(=O)c1nc(-c2cc(F)c(I)cc2F)c(Br)c(N)c1Cl [Compound 100],85 to 94

# Same assay, conditions: post-emergence, 336 h; VIOTR: wild pansy (Viola tricolor); 70 g ai/ha; post-emergent; 14 days after application; read-out: Visual Growth Reduction (%) 14 Days After Application VIOTR
row,SMILES,pest or weed control at 70 g/ha [%]
1,COC(=O)c1nc(-c2cc(F)c(I)cc2F)c(Br)c(N)c1Cl [Compound 100],0 to 29

# Same assay, conditions: post-emergence, 336 h; VIOTR: wild pansy (Viola tricolor); 140 g ai/ha; post-emergent; 14 days after application; read-out: Visual Growth Reduction (%) 14 Days After Application VIOTR
row,SMILES,pest or weed control at 140 g/ha [%]
1,COC(=O)c1nc(-c2cc(F)c(I)cc2F)c(Br)c(N)c1Cl [Compound 100],0 to 29
